According to US8344008B2 (Janssen Pharmaceutica NV, priority 2007, dated 2013):

Biological target: T1, recombinant human LTA4 hydrolase (rhLTA4H) (Homo sapiens, UniProt P09960)
T1 construct: made in house; host or cells: Spodoptera frugiperda (Sf-9) cells, baculovirus (pFastBac1)
T1 sequence (P09960 1-611): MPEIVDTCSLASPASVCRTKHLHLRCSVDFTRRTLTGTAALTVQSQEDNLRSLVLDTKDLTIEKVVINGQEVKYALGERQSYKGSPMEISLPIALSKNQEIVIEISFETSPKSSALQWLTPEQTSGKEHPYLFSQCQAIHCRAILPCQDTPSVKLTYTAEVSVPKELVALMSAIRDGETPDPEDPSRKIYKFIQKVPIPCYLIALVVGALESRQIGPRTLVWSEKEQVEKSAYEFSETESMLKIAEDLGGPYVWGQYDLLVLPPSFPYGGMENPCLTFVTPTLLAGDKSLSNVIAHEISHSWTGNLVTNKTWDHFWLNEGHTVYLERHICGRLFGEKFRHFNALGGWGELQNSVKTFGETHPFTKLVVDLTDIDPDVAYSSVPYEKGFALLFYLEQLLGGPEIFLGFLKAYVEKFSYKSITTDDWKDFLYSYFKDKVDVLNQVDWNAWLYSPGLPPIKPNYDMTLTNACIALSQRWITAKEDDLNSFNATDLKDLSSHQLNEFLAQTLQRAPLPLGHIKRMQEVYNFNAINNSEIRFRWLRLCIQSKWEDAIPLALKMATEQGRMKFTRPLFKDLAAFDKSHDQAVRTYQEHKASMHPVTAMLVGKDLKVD
Experiment: Recombinant Human LTA4 Hydrolase Assay for LTA4 Hydrolase Inhibitor Activity
Assay type: biochemical
Conditions: average of results obtained; LTB4 quantified by enzyme-linked immunoassay
Procedure, shortened: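 Baculovirus/Sf-9-expressed human LTA4 hydrolase (36 ng) preincubated with compound 10 min at rt in 0.1 M potassium phosphate pH 7.4, 5 mg/mL fatty-acid-free BSA. Reaction started with 9 ng LTA4 free acid, run 10 min at rt; LTB4 measured by enzyme immunoassay, IC50 from 4-parameter fit.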

| Compound | Ki |
| --- | --- |
| CS(=O)(=O)N1C[C@@H]2C[C@H]1CN2CCc1ccc(Oc2nc3ccc(Cl)cc3s2)cc1 [Example 238, (S,S)-6-Chloro-2-{4-[2-(5-methanesulfonyl-2,5-diaza-bicyclo[2.2.1]hept-2-yl)-ethyl]-phenoxy}-benzothiazole] | 651 nM |
| Cn1cnc(S(=O)(=O)N2CC3CN(Cc4ccc(Oc5nc6ccccc6s5)cc4)CC3C2)c1 (stereo not drawn) [Example 122, 2-{4-[5-(1-Methyl-1H-imidazole-4-sulfonyl)-hexahydro-pyrrolo[3,4-c]pyrrol-2-ylmethyl]-phenoxy}-benzothiazole] | 139 nM |
| NC(=O)N1[C@@H]2CC[C@H]1C[C@H](NCc1ccc(Oc3nc4cccc(F)c4s3)cc1)C2 [Example 171, meso-endo-3-[4-(7-Fluoro-benzothiazol-2-yloxy)-benzylamino]-8-aza-bicyclo[3.2.1]octane-8-carboxylic acid amide] | 224 nM |
| NCC(=O)N1C[C@@H]2C[C@H]1CN2CCOc1ccc(Oc2nc3ccccc3s2)cc1 [Example 31, (S,S)-2-Amino-1-(5-{2-[4-(benzothiazol-2-yloxy)-phenoxy]-ethyl}-2,5-diaza-bicyclo[2.2.1]hept-2-yl)-ethanone] | 76 nM |
| CC(=O)N[C@H]1C[C@H]2CC[C@@H](C1)N2Cc1ccc(Oc2nc3c(Cl)cccc3s2)cc1 [Example 71, meso-endo-N-{8-[4-(4-Chloro-benzothiazol-2-yloxy)-benzyl]-8-aza-bicyclo[3.2.1]oct-3-yl}-acetamide] | 25 nM |
| O=C(Nc1ccncc1)N1CC2CN(Cc3ccc(Oc4nc5ccccc5s4)cc3)CC2C1 (stereo not drawn) [Example 132, 5-[4-(Benzothiazol-2-yloxy)-benzyl]-hexahydro-pyrrolo[3,4-c]pyrrole-2-carboxylic acid pyridin-4-yl amide] | 18 nM |
| CC(=O)N[C@@H]1C[C@H]2CC[C@@H](C1)N2CCOc1ccc(Oc2nc3cccc(Cl)c3s2)cc1 [Example 195, meso-exo-N-(8-{2-[4-(7-Chloro-benzothiazol-2-yloxy)-phenoxy]-ethyl}-8-aza-bicyclo[3.2.1]oct-3-yl)-acetamide] | 1660 nM |
| CS(=O)(=O)N1[C@@H]2CC[C@H]1C[C@@H](NCCOc1ccc(Oc3nc4cc(F)ccc4s3)cc1)C2 [Example 233, meso-endo-{2-[4-(5-Fluoro-benzothiazol-2-yloxy)-phenoxy]-ethyl}-(8-methanesulfonyl-8-aza-bicyclo[3.2.1]oct-3-yl)-amine] | 225 nM |
| CC(=O)N1CC2CCC(C1)N2CCOc1ccc(Oc2nc3cc(F)ccc3s2)cc1 [Example 199, meso-1-(8-{2-[4-(5-Fluoro-benzothiazol-2-yloxy)-phenoxy]-ethyl}-3,8-diaza-bicyclo[3.2.1]oct-3-yl)-ethanone] | 20 nM |
| O=C(c1ccco1)N1CC2CN(Cc3ccc(Oc4nc5ccccc5s4)cc3)CC2C1 (stereo not drawn) [Example 106, {5-[4-(Benzothiazol-2-yloxy)-benzyl]-hexahydro-pyrrolo[3,4-c]pyrrol-2-yl}-furan-2-yl-methanone] | 3 nM |
| NC(=O)N[C@H]1C[C@H]2CC[C@@H](C1)N2Cc1ccc(Oc2nc3ccccc3s2)cc1 [Example 60, meso-endo-{8-[4-(Benzothiazol-2-yloxy)-benzyl]-8-aza-bicyclo[3.2.1]oct-3-yl}-urea] | 2 nM |
| CC(=O)N1C[C@H]2C[C@@H]1CN2CCOc1ccc(Oc2nc3ccc(C)cc3s2)cc1 [Example 180, (R,R)-1-(5-{2-[4-(6-Methyl-benzothiazol-2-yloxy)-phenoxy]-ethyl}-2,5-diaza-bicyclo[2.2.1]hept-2-yl)-ethanone] | 124 nM |
| O=C(C1CCOCC1)N1CC2CN(Cc3ccc(Oc4nc5ccccc5s4)cc3)CC2C1 (stereo not drawn) [Example 103, {5-[4-(Benzothiazol-2-yloxy)-benzyl]-hexahydro-pyrrolo[3,4-c]pyrrol-2-yl}-(tetrahydro-pyran-4-yl)-methanone] | 51 nM |
| CC(C)(O)C(=O)N1C[C@@H]2C[C@H]1CN2Cc1ccc(Oc2nc3ccccc3s2)cc1 [Example 12, (S,S)-1-{5-[4-(Benzothiazol-2-yloxy)-benzyl]-2,5-diaza-bicyclo[2.2.1]hept-2-yl}-2-hydroxy-2-methyl-propan-1-one] | 31 nM |
| CC(C)(C)OC(=O)NCC(=O)N1C[C@H]2C[C@@H]1CN2Cc1ccc(Oc2nc3ccccc3s2)cc1 [Example 28, (R,R)-(2-{5-[4-(Benzothiazol-2-yloxy)-benzyl]-2,5-diaza-bicyclo[2.2.1]hept-2-yl}-2-oxo-ethyl)-carbamic acid tert-butyl ester] | 88 nM |
| Cc1ccc2nc(Oc3ccc(CCN[C@@H]4C[C@H]5CC[C@@H](C4)N5S(C)(=O)=O)cc3)sc2c1 [Example 269, meso-exo-(8-Methanesulfonyl-8-aza-bicyclo[3.2.1]oct-3-yl)-{2-[4-(6-methyl-benxothiazol-2-yloxy)-phenyl]-ethyl}-amine] | 630 nM |
| CC(=O)N[C@@H]1C[C@H]2CC[C@@H](C1)N2CCc1ccc(Oc2nc3ccc(Cl)cc3s2)cc1 [Example 163, meso-exo-N-(8-{2-[4-(6-Chloro-benzothiazol-2-yloxy)-phenyl]-ethyl}-8-aza-bicyclo[3.2.1]oct-3-yl)-acetamide] | 86 nM |
| CN(Cc1ccc(Oc2nc3ccccc3s2)cc1)[C@H]1C[C@H]2CC[C@@H](C1)N2C(N)=O [Example 75, meso-endo-3-{[4-(Benzothiazol-2-yloxy)-benzyl]-methyl-amino}-8-aza-bicyclo[3.2.1]octane-8-carboxylic acid amide] | 95 nM |
| Cc1ccc2nc(Oc3ccc(OCCN[C@H]4C[C@H]5CC[C@@H](C4)N5S(C)(=O)=O)cc3)sc2c1 [Example 220, meso-endo-(8-Methanesulfonyl-8-aza-bicyclo[3.2.1]oct-3-yl)-{2-[4-(6-methyl-benzothiazol-2-yloxy)-phenoxy]-ethyl}-amine] | 445 nM |
| NC(=O)N[C@@H]1C[C@H]2CC[C@@H](C1)N2Cc1ccc(Oc2nc3c(Cl)cccc3s2)cc1 [Example 229, meso-exo-{8-[4-(4-Chloro-benzothiazol-2-yloxy)-benzyl]-8-aza-bicyclo[3.2.1]oct-3-yl}-urea] | 20 nM |
| NC(=O)N1[C@@H]2CC[C@H]1C[C@H](NCCOc1ccc(Oc3nc4ccc(F)cc4s3)cc1)C2 [Example 267, meso-exo-3-{2-[4.(6-Fluoro-benzothiazol-2-yloxy)-phenoxy]-ethylamino}-8-aza-bicyclo[3.2.1]octane-8-carboxylic acid amide] | 296 nM |
| CS(=O)(=O)N[C@@H]1C[C@H]2CC[C@@H](C1)N2CCOc1ccc(Oc2nc3cc(Cl)ccc3s2)cc1 [Example 265, meso-exo-N-(8-{2-[4-(5-Chloro-benzothiazol-2-yloxy)-phenoxy]-ethyl}-8-aza-bicyclo[3.2.1]oct-3-yl)-methanesulfonamide] | 310 nM |
| NC(=O)N1CCC2CN(Cc3ccc(Oc4nc5ccccc5s4)cc3)CC21 (stereo not drawn) [Example 135, 5-[4-(Benzothiazol-2-yloxy)-benzyl]-hexahydro-pyrrolo[3,4-b]pyrrole-1-carboxylic acid amide] | 57 nM |
| CS(=O)(=O)N1[C@@H]2CC[C@H]1C[C@@H](NCCOc1ccc(Oc3nc4c(Cl)cccc4s3)cc1)C2 [Example 194, meso-endo-{2-[4-(4-Chloro-benzothiazol-2-yloxy)-phenoxy]-ethyl}-(8-methanesulfonyl-8-aza-bicyclo[3.2.1]oct-3-yl)-amine] | 3140 nM |
